Data taken from patent US10512656B2, “Compositions and methods for the treatment of lysosomal storage disorders and disorders characterized by lysosomal dysfunction” (Baylor College of Medicine, priority 2016, dated 2019).

Assays:
[1] = test system: TFEB; assay: TFEB subcellular localization in mouse brain; type: in vivo
Procedure: Mice were injected intraperitoneally with MK2206 (120 mg/kg) for four times every other day. MK2206 was formulated in 30% captisol in water. Four Cln3^Δex7-8 mice were injected with MK2206 and four were injected with 30% captisol as vehicle control.
Trehalose (Swanson) was dissolved in drinking water to a final concentration of 2% and changed twice a week. Trehalose-containing water was given to Cln3^Δex7-8 and WT mice by spontaneous oral administration starting at 21 days of age and continuing until the day the mice died naturally (life span assessment) or were sacrificed for other studies.

[2] = test system: TFEB; assay: TFEB nuclear translocation in cells expressing constitutively active GSK3β; type: cell-based, human; conditions: cells expressing CA-GSK3β/S9A-GSK3β, 24 h
Procedure: FIG. 16. Trehalose controls Akt regulation of TFEB in a GSK3β-independent manner. (a) HeLa cells were treated with trehalose for 24 h or left untreated. Immunoblot analyses were used to evaluate levels of GSK33 and its phosphorylation status. GAPDH was used as a loading control. (b) HeLa cells were cotransfected with TFEB-3×Flag and constitutively active GSK3β (CA-GSK3β), treated with trehalose or MK2206 for 24 h, and examined by immunofluorescence labeling for Flag (red) and GSK3β (green). Scale bar is 20 […]. (c) HeLa cells were cotransfected with TFEB-3×Flag and constitutively active Akt (Akt-DD), treated with the GSK3β inhibitor CHIR99021 for 24 h, and examined by immunofluorescence labeling for Flag (red) and Akt (green). Scale bar is 20 μm.

[3] = test system: HeLa cells; assay: Autophagy in HeLa cells (LC3 puncta, LC3 lipidation, TEM); type: cell-based, human; conditions: for number of autophagic vesicles: TEM
Procedure: FIG. 24. […] (b) Immunoblot analysis of LC3 lipidation. […] (d) Expression analysis of lysosomal and autophagy genes in HeLa cells treated with MK2206. Gene expression was normalized relative to the housekeeping gene, GAPDH. The dashed line indicates relative gene expression in untreated cells. […] Scale bar, 10 μm (a), 50 nm (c) and 20 μm (f).
Control (Coriell Institute, USA) and JNCL fibroblasts (Gaslini Institute, Italy) were grown in DMEM (1:1, HyClone) supplemented with 10% heat-inactivated fetal bovine serum (FBS, Atlanta Biologicals), 2 mM L-glutamine, 100 U/ml penicillin and […] streptomycin (Invitrogen). HeLa cells were incubated for 2 h with LY294002 ([…], Cell Signaling), Torin 1 (300 nM, Cayman Chemical) or for 24 h with trehalose (100 mM, Sigma), rapamycin (300 nM, Sigma), MK2206 (1 μM, Selleckchem), U0126 ([…], Tocris) and dialyzed serum (GE Healthcare Life Sciences) for 30 min.
For immunofluorescence assay, cells were grown on coverslips in 24-well plates. After the treatment, cells were washed with PBS and fixed with methanol for 10 min. Cells were then blocked with blocking reagent (0.1% saponin, 10% bovine serum in PBS) for 1 h and incubated with appropriate primary antibody(s) (1:100) for 3 h at room temperature. After three washes with PBS, the cells were incubated with appropriate secondary antibodies (1:500) for 1 h at room temperature. Coverslips were then mounted with vectashield containing 4,6-diamidino-2-phenylindole (H-1200) for imaging via confocal microscopy.
Brain tissue and cultured cells were collected and lysed in RIPA buffer (50 mM Tris-HCl, ph 7.4, 1% NP40, 0.5% Na-deoxycholate, 0.1% SDS, 150 mM NaCl, 2 mM EDTA and 50 mM NaF) including a cocktail of protease (Roche) and phosphatase (SIGMA) inhibitors. Protein concentrations were measured with the bicinchoninic acid protein assay kit (Pierce, Rockford, Ill.), using bovine serum albumin as standard. Lysates were separated via SDS-polyacrylamide gel electrophoresis (PAGE) and then transferred to nitrocellulose membranes. Blots were incubated in blocking buffer (5%, w/v, dried skimmed milk in Tris-buffered saline, pH 7.4 and 0.2% Tween 20, TBST) followed by overnight incubation with appropriate antibodies diluted in blocking buffer (5% dry milk). Western blot images were acquired by LAS 4000 (GE Healthcare) and quantified using ImageJ. Images have been cropped for presentation.

[4] = test system: Cln3^Δex7-8 mice; assay: Hot plate test (pain sensitivity); type: in vivo, mouse; conditions: six-month-old Cln3^Δex7-8 mice, 50° C. surface
Source text: FIG. 1. Amelioration of disease pathology in JNCL mice fed with trehalose. […] Treated (Tre) Cln3^Δex7-8 mice: n=13. Untreated (UT) Cln3^4ex7-8 mice: n=12. (b) Weight of brains from 12-month-old WT and Cln3^Δex7-8 mice with or without trehalose treatment. All groups of mice, n=4 or 5. (c) Fractional anisotropy of brains from 12-month-old WT and Cln3^Δex7-8 mice with or without trehalose treatment. Left panel: representative coronal images of the four groups of brains; corpus callosa are indicated by the yellow arrowhead. Right panel: quantification of callosal volume. All groups of mice, n=3 or 4. Scale bar, […]. Three-dimensional reconstructions of the corpus callosum in mice from treated and control groups are reported in Supplementary Movies 1-4. (d) In the hot plate test, Cln3^Δex7-8 mice respond slower when placed on a 50° C. heated metal surface compared with wild-type (WT) littermates, indicating reduced pain sensitivity. Trehalose (Tre) treatment rescued this phenotype in Cln3^Δex7-8 mice. All groups of mice, n=14-19. Data represent means±s.e.m. *P<0.05, **P<0.01, ***P<0.001.

[5] = test system: TFEB; assay: TFEB nuclear translocation in HeLa cells with WT or constitutively active mTOR; type: cell-based, human; conditions: cells transfected with WT mTOR or mTOR^E2419K, trehalose 100 mM 24 h
Procedure: (b) Quantification of TFEB subcellular localization (C, cytoplasmic; N, nuclear) after 24 h of trehalose treatment (Tre) or in untreated cells (UT). Scale bars in a, b is 40 μm. (c) Immunoblot analyses show expression levels of substrates downstream of mTORC1. Wild-type (WT) and TSC2 null MEF cells were treated with trehalose (Tre; 100 mM) for 24 h or left untreated. As controls, cells were treated with Torin 1 (300 nM) or rapamycin (300 nM) for 2 h before extracting the lysates. Phospho- and total S6K1 (P-S6K1 and T-S6K1), phospho- and total S6 (P-S6 and T-S6) and phospho- and total 4E-BP1 (P-4E-BP1 and T-4E-BP1) were detected as readouts of mTORC1 activity. […] (f) HeLa cells co-transfected with TFEB-3×FLAG and mTOR or (g) TFEB-3×FLAG and constitutively active mTOR (CA-mTOR, […]) constructs were treated with trehalose (100 mM for 24 h) or left untreated before immunofluorescent labelling of TFEB (red) and mTOR (green) with FLAG and mTOR antibodies, respectively. Scale bar, 10 μm (d-g). Data represent means±s.e.m.
For immunofluorescence assay, cells were grown on coverslips in 24-well plates. After the treatment, cells were washed with PBS and fixed with methanol for 10 min. Cells were then blocked with blocking reagent (0.1% saponin, 10% bovine serum in PBS) for 1 h and incubated with appropriate primary antibody(s) (1:100) for 3 h at room temperature. […]

| SMILES | TFEB localization in brain ([1]; Cln3^Δex7-8 mice, MK2206 120 mg/kg intraperitoneal) | TFEB nuclear translocation [2] | number of LC3 puncta [3] | number of autophagic vesicles [3] | LC3-II protein levels ([3]; immunoblot) | pain sensitivity in hot plate assay [4] | TFEB nuclear translocation [5] | TFEB localization in brain sections ([1]; WT and Cln3^Δex7-8 mice, oral trehalose) |
| --- | --- | --- | --- | --- | --- | --- | --- | --- |
| Cl.NC1(c2ccc(-c3nc4ccn5c(=O)[nH]nc5c4cc3-c3ccccc3)cc2)CCC1 [MK2206, 8-[4-(1-aminocyclobutyl)phenyl]-9-phenyl-1,2,4-triazolo[3,4-f][1,6]naphthyridin-3(2H)-one] | TFEB nuclear translocation | able to induce nuclear translocation of TFEB | increased number of LC3 puncta | increased number of autophagic vesicles | increased LC3-II protein levels | – | – | – |
| OC[C@H]1O[C@H](O[C@H]2O[C@H](CO)[C@@H](O)[C@H](O)[C@H]2O)[C@H](O)[C@@H](O)[C@@H]1O [trehalose, a-D-glucopyranosyl a-D-glucopyranoside] | – | able to induce nuclear translocation of TFEB | increased number of puncta | increased number of autophagic vesicles | – | fully restored | induces nuclear translocation of TFEB | TFEB nuclear translocation |
